These results are taken from US10221138B2, “Biaryl derivatives as GPR120 agonists” (LG CHEM, LTD., priority 2013, dated 2019).

As a reminder, the EC50 is the midpoint of the concentration-response curve.

For this test, the target named is T1, hGPR120 (Homo sapiens, UniProt Q5NUL3).
T1 construct: expressed in transfected cells; host or cells: CHO-K1
T1 sequence (Q5NUL3 1-361): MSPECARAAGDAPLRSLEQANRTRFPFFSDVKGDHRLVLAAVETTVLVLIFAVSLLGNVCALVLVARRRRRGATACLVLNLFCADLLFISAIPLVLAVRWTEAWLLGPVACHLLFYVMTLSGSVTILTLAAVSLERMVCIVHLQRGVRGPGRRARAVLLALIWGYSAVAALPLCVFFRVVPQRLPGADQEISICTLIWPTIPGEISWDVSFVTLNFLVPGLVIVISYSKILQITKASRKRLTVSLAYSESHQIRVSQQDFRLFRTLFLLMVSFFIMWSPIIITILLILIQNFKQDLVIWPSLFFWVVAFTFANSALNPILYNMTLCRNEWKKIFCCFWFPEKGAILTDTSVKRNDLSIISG
Put plainly: Measurement of activity of GPR120 agonist (cell-based calcium fluorescence assay). To be noted: CHO-K1 cells expressing Ga16 and hGPR120, Calcium 5 dye fluorescence; activity class; read-out: EC50. In a few lines:
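CHO-K1 cells co-expressing Gα16 and hGPR120, plated 18 h, loaded with Calcium 5 dye for 1 h at 37 °C, then given serially diluted agonists (final 0.5% DMSO). Fluorescence increase expressed as relative % of the 1% DMSO-only signal.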
In the case of `O=C(O)CCCOc1c(F)cc(-c2cccnc2OC2CCCCC2)cc1F` [Example 228, 4-[4-(2-cyclohexyloxy-pyridin-3-yl)-2,6-difluoro-phenoxy]-butyric acid], the EC50 was less than 200 nM.
For `O=C(O)CCCOc1c(F)cc(-c2cccnc2OCC2CCCC2)cc1F` [Example 229, 4-[4-(2-cyclopentylmethoxy-pyridin-3-yl)-2,6-difluoro-phenoxy]-butyric acid] the value was less than 200 nM; for `CC(C)COc1ncccc1-c1cc(F)c(OCCCC(=O)O)c(F)c1` [Example 230, 4-[2,6-difluoro-4-(2-isobutoxy-pyridin-3-yl)-phenoxy]-butyric acid], less than 200 nM; for `CC(C)(C)COc1ncccc1-c1cc(F)c(OCCCC(=O)O)c(F)c1` [Example 231, 4-{4-[2-(2,2-dimethy-propoxy)-pyridin-3-yl]-2,6-difluoro-phenoxy}-butyric acid], 200 to 2000 nM.
Take `O=C(O)CCCCOc1c(F)cc(-c2cccnc2OC2CCCC2)cc1F` [Example 232, 5-[4-(2-cyclopentyloxy-pyridin-3-yl)-2,6-difluoro-phenoxy]-pentanoic acid]: the EC50 is less than 200 nM.
Take `O=C(O)CCCCOc1c(F)cc(-c2cccnc2SC2CCC2)cc1F` [Example 233, 5-[4-(2-cyclobutylsulfanyl-3-pyridyl)-2,6-difluoro-phenoxy]pentanoic acid]: the EC50 was less than 200 nM.
Take `O=C(O)CCCCOc1c(F)cc(-c2cccnc2SC2CCCC2)cc1F` [Example 234, 5-[4-(2-cyclopentylsulfanyl-3-pyridyl)-2,6-difluoro-phenoxy]pentanoic acid]: the EC50 is less than 200 nM.
Regarding `CC(C)Sc1ncccc1-c1cc(F)c(OCCCCC(=O)O)c(F)c1` [Example 235, 5-[2,6-difluoro-4-(2-isopropylsulfanyl-3-pyridyl)phenoxy]pentanoic acid], the EC50 was less than 200 nM.
As for `CCCSc1ncccc1-c1cc(F)c(OCCCCC(=O)O)c(F)c1` [Example 236, 5-[2,6-difluoro-4-(2-propylsulfanyl-3-pyridyl)phenoxy]pentanoic acid], the EC50 was less than 200 nM.
The value for `CC(C)Sc1cccc(-c2cc(F)c(OCCCCC(=O)O)c(F)c2)n1` [Example 237, 5-[2,6-difluoro-4-(6-isopropylsulfanyl-2-pyridyl)phenoxy]pentanoic acid] was less than 200 nM.
In the case of `CC(C)Oc1cccc(-c2cc(F)c(OCCCCC(=O)O)c(F)c2)n1` [Example 238, 5-[2,6-difluoro-4-(6-isopropoxy-2-pyridyl)phenoxy]pentanoic acid], the EC50 is less than 200 nM.
Turning to `O=C(O)CCCCOc1c(F)cc(-c2cccnc2OCC2CC2)cc1F` [Example 239, 5-[4-[2-(cyclopropylmethoxy)-3-pyridyl]-2,6-difluoro-phenoxy]pentanoic acid], the half-maximal effective concentration (EC50) was less than 200 nM.
For `O=C(O)CCCCOc1c(F)cc(-c2cccnc2OC2CCOC2)cc1F` (stereo not shown) [Example 240, 5-[2,6-difluoro-4-(2-tetrahydrofuran-3-yloxy-3-pyridyl)phenoxy]pentanoic acid], the concentration giving a half-maximal response (EC50) lay within 200 to 2000 nM.
For the compound `O=C(O)CCCCOc1c(F)cc(-c2cccnc2OC2CCOCC2)cc1F` [Example 241, 5-[2,6-difluoro-4-(2-tetrahydropyran-4-yloxy-3-pyridyl)phenoxy]pentanoic acid], the half-maximal effective concentration (EC50) was 200 to 2000 nM.
For `CC(C)Oc1ncccc1-c1cc(F)c(SC(C)CCC(=O)O)c(F)c1` (stereo not shown) [Example 242, 4-[2,6-difluoro-4-(2-isopropoxy-pyridin-3-yl)-phenylsulfanyl]-pentanoic acid] the value was less than 200 nM.
As for `O=C(O)CCCSc1ccc(-c2cccnc2OC2CCOCC2)cc1F` [Example 244, 4-{2-fluoro-4-[2-(tetrahydropyran-4-yloxy)-pyridin-3-yl]-phenylsulfanyl}-butyric acid], the half-maximal effective concentration (EC50) fell in the range of 200 to 2000 nM.
`O=C(O)CCCSc1ccc(-c2cccnc2OC2CCOC2)cc1F` (stereo not shown) [Example 245, 4-{2-fluoro-4-[2-(tetrahydrofuran-3-yloxy)-pyridin-3-yl]-phenylsulfanyl}-butyric acid]: the EC50 was 200 to 2000 nM.
`O=C(O)CCCSc1ccc(-c2cccnc2OCC2CCC2)cc1F` [Example 246, 4-[4-(2-cyclobutylmethoxy-pyridin-3-yl)-2-fluoro-phenylsulfanyl]-butyric acid]: the EC50 was less than 200 nM.
Take `O=C(O)CCCSc1c(F)cc(-c2cccnc2OCC(F)(F)F)cc1F` [Example 247, 4-{2,6-difluoro-4-[2-(2,2,2-trifluoro-ethoxy)-pyridin-3-yl]-phenylsulfanyl}-butyric acid]: the half-maximal effective concentration (EC50) is less than 200 nM.
For `O=C(O)CCCSc1c(F)cc(-c2cccnc2OCC2CCC2)cc1F` [Example 248, 4-[4-(2-cyclobutylmethoxy-pyridin-3-yl)-2,6-difluoro-phenylsulfanyl]-butyric acid] the value was less than 200 nM; for `O=C(O)CCCSc1c(F)cc(-c2cccnc2NC2CCCC2)cc1F` [Example 249, 4-[4-(2-cyclopentylamino-pyridin-3-yl)-2,6-difluoro-phenylsulfanyl]-butyric acid], less than 200 nM; for `CC(C)Nc1ncccc1-c1cc(F)c(SCCCC(=O)O)c(F)c1` [Example 250, 4-[2,6-difluoro-4-(2-isopropylamino-pyridin-3-yl)-phenylsulfanyl]-butyric acid], 200 to 2000 nM.
For `O=C(O)CCCSc1c(F)cc(-c2cccnc2NCC2CC2)cc1F` [Example 251, 4-{4-[2-(cyclopropylmethyl-amino)-pyridin-3-yl]-2,6-difluoro-phenylsulfanyl}-butyric acid] the value was 200 to 2000 nM.
For `O=C(O)CCCCSc1c(F)cc(-c2cccnc2OC2CCCC2)cc1F` [Example 252, 5-[4-(2-cyclopentyloxy-pyridin-3-yl)-2,6-difluoro-phenylsulfanyl]-pentanoic acid] the value was less than 200 nM; for `CC(C)Oc1ncccc1-c1cc(F)c(SCCCCC(=O)O)c(F)c1` [Example 253, 5-[2,6-difluoro-4-(2-isopropoxy-pyridin-3-yl)-phenylsulfanyl]-pentanoic acid], 200 to 2000 nM; for `O=C(O)CCCCSc1ccc(-c2cccnc2OC2CCCC2)cc1` [Example 254, 5-[4-(2-cyclopentyloxy-pyridin-3-yl)-phenylsulfanyl]-pentanoic acid], less than 200 nM.
With `CC(C)Oc1ncccc1-c1ccc(SCCCCC(=O)O)cc1` [Example 255, 5-[4-(2-isopropoxy-pyridin-3-yl)-phenylsulfanyl]-pentanoic acid], the half-maximal effective concentration (EC50) was in the range of 200 to 2000 nM.
For `CCCSc1ncccc1-c1cc(F)c(SCCCCC(=O)O)c(F)c1` [Example 257, 5-[2,6-difluoro-4-(2-propylsulfanyl-pyridin-3-yl)-phenylsulfanyl]-pentanoic acid] the value was less than 200 nM; for `O=C(O)CCCCSc1ccc(-c2cccnc2SC2CCCC2)cc1` [Example 258, 5-[4-(2-cyclopentylsulfanyl-pyridin-3-yl)-phenylsulfanyl]-pentanoic acid], less than 200 nM.
The value for `O=C(O)CCCCSc1ccc(-c2cccnc2SC2CCC2)cc1` [Example 259, 5-[4-(2-cyclobutylsulfanyl-pyridin-3-yl)-phenylsulfanyl]-pentanoic acid] was less than 200 nM; that for `O=C(O)CCCCSc1c(F)cc(-c2cccnc2OCC2CCC2)cc1F` [Example 260, 5-[4-(2-cyclobutylmethoxy-pyridin-3-yl)-2,6-difluoro-phenylsulfanyl]-pentanoic acid] was less than 200 nM.
As for `O=C(O)CCCCSc1c(F)cc(-c2cccnc2OC2CCC2)cc1F` [Example 261, 5-[4-(2-cyclobutoxy-pyridin-3-yl)-2,6-difluoro-phenylsulfanyl]-pentanoic acid], the half-maximal effective concentration (EC50) is less than 200 nM.
Take `O=C(O)CCCCCOc1c(F)cc(-c2cccnc2OC2CCCC2)cc1F` [Example 262, 6-[4-(2-cyclopentyloxy-pyridin-3-yl)-2,6-difluoro-phenoxy]-hexanoic acid]: the EC50 was less than 200 nM.
For `O=C(O)CCCCCCOc1c(F)cc(-c2cccnc2OC2CCCC2)cc1F` [Example 263, 7-[4-(2-cyclopentyloxy-pyridin-3-yl)-2,6-difluoro-phenoxy]-heptanoic acid] the value was 2000 to 20000 nM.
The value for `CC(C)Oc1ncccc1-c1ccc(OCCCCC(=O)O)c(F)c1` [Example 264, 5-[2-fluoro-4-(2-isopropoxy-pyridin-3-yl)-phenoxy]-pentanoic acid] was 200 to 2000 nM; that for `O=C(O)CCCCOc1ccc(-c2cccnc2SC2CCCC2)cc1F` [Example 265, 5-[4-(2-cyclopentylsulfanyl-pyridin-3-yl)-2-fluoro-phenoxy]-pentanoic acid] was less than 200 nM.
For `O=C(O)CCCCOc1ccc(-c2cccnc2SC2CCC2)cc1F` [Example 266, 5-[4-(2-cyclobutylsulfanyl-pyridin-3-yl)-2-fluoro-phenoxy]-pentanoic acid] the value was less than 200 nM; for `O=C(O)CCCCOc1ccc(-c2cccnc2OC2CCCC2)cc1F` [Example 267, 5-[4-(2-cyclopentyloxy-pyridin-3-yl)-2-fluoro-phenoxy]-pentanoic acid], less than 200 nM.
`COc1ncccc1-c1cc(F)c(OCCCC(=O)O)c(F)c1` [Example 268, 4-[2,6-difluoro-4-(2-methoxy-pyridin-3-yl)-phenoxy]-butyric acid]: the EC50 fell in the range of 200 to 2000 nM.
For `C=CCOc1ncccc1-c1cc(F)c(OCCCC(=O)O)c(F)c1` [Example 269, 4-[4-(2-allyloxy-pyridin-3-yl)-2,6-difluoro-phenoxy]-butyric acid] the value was 200 to 2000 nM.
